Assay results taken from patent US20200268831A1, “METHODS FOR ENHANCING IMMUNOTHERAPY IN THE TREATMENT OF CANCER” (The Texas A&M University System, priority 2017, published 2020).

Key:
[1] = tested on: MHC class II expressing B cells; experiment: MHCII-mediated cell death of CpG-activated cells after peptide and anti-MHCII antibody; format: cell-based, C57/B6 mice; settings: CpG activated cells treated with peptide followed by antibodies to MHCII; FIG. 3A
Experimental: In a first experiment, animals were injected with complete Freunds adjuvant (CFA) that contains mycobacterial DNA (a well-established TLR activator), or with CFA followed by the competitive antagonist peptide (CLIP inhibitor, SEQ ID NO. 2). Spleens were harvested, stained with CD19 for the detection of B cells, versus CLIP as an indicator of CD19+ cells expressing CLIP. The effect of CLIP inhibitors delivered in vivo on B cells (1A) versus CLIP+B cells (1B) is presented in the bar graphs.
To test the hypothesis that CLIP in the groove prevents MHCII-mediated cell death, we utilized animals that are deficient in CD74 expression (Ii Def mice), thus lacking both the precursor CD74 molecule as well as its proteolytic product, CLIP. […] any increase in cell death following CpG treatment, FIGS. 3A and 3B. […] The absence of CLIP (CLIP knock outs) leaves the cells susceptible to MHC Class II-mediated cell death (3B).

MHCII in B cells = experiment: competitive displacement of peptides in the peptide binding groove of MHCII in B cells; format: cell-based; settings: preliminary studies
Experimental: To confirm the expression of MHCII staining with fluorochrome-conjugated anti-MHCII antibodies, followed by flow cytometric analysis may be performed. The cells are stained for a panel of cell surface molecules, including CD19, CD80 (B7.1), CD86 (B7.2), CD74, MHCII associated invariant peptide (CLIP), and the family of immune check points, including PD1, B7-H2, and B7-H4. As a starting concentration, the cultured cells are treated with a competitive antagonist peptide (CAP) at a concentration of 5 μg/ml, as established from preliminary studies as the optimum concentration for competitive displacement of peptides in the peptide binding groove of MHCII in B cells. […] To characterize these parameters, including levels of MHCII and other cell surface characteristics, the cells are treated with the competitive antagonist peptide at the previously determined optimum concentration, presumably 5 μg/ml, followed by treatment with anti-MHCII antibody as a surrogate for TCR engagement. Susceptibility to MHCII-mediated cell death is assessed by treating the cells with peptide, followed by treatment with anti-MHCII antibody for periods ranging between 3 and 24 hours to determine the optimum kinetics for inducing cell death. […] The capability of CAP peptide treatment to promote MHCII-mediated cell death may be assessed.

FRIMAVLAS [TPP]
MHC Class-II-mediated cell death [1]: MHC Class-II-mediated cell death can be restored
optimum concentration for competitive displacement of peptides in the peptide binding groove of MHCII (MHCII in B cells): 5 µg/mL
